Measurements reported in patent publication US11174252B2, “Heterocyclic compounds as kinase inhibitors” (priority 2018, dated 2021).
Like-named read-outs stand apart in the source and are kept apart here.

What was measured:
CDK4 = CDK4 (Homo sapiens (Human), UniProt P11802); assay: In vitro kinase inhibition, luminescence (ADP-Glo) with retinoblastoma substrate; format: biochemical
CDK6 = CDK6 (Homo sapiens (Human), UniProt Q00534); assay: biochemical; format: biochemical
FMS kinase = FMS kinase (Homo sapiens (Human), UniProt P07333); assay: LanthaScreen kinase assay (ATP, fluorescent-PolyGT substrate, TR-FRET); format: biochemical
MCF-7 = assay: Cancer cell proliferation assay, single agent; format: cell-based; details: Homo sapiens
DU4475 = assay: Cancer cell proliferation assay, single agent; format: cell-based; details: Homo sapiens
[1] = MCF7, MCF-7 cells, treated for 24-168 hours, read-out: IC50 (nM) MCF-7
[2] = DU-4475, DU4475 cells, treated for 24-168 hours, read-out: IC50 (nM) DU4475
[3] = MCF7, read-out: IC50 (nM) MCF-7
[4] = DU-4475, read-out: IC50 (nM) DU4475

Chain of CDK4 (P11802 whole entry): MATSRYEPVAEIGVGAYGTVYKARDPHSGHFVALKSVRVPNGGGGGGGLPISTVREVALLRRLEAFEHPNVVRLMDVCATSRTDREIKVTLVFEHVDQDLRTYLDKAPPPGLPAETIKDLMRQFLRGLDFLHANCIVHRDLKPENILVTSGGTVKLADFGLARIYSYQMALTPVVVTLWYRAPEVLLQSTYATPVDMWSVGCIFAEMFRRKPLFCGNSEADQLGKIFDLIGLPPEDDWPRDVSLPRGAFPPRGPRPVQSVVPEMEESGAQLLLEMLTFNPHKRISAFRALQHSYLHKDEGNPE
Chain of CDK4 (P24385 whole entry partner): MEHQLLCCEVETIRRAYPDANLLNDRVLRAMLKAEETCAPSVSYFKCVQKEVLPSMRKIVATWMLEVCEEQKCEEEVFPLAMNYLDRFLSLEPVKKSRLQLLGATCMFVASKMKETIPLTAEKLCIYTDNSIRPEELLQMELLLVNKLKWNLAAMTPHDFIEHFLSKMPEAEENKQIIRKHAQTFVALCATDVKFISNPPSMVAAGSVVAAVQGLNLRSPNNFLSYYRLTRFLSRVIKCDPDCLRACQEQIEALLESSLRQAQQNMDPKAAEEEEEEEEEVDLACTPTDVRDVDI
Chain of FMS kinase (P07333 20-972): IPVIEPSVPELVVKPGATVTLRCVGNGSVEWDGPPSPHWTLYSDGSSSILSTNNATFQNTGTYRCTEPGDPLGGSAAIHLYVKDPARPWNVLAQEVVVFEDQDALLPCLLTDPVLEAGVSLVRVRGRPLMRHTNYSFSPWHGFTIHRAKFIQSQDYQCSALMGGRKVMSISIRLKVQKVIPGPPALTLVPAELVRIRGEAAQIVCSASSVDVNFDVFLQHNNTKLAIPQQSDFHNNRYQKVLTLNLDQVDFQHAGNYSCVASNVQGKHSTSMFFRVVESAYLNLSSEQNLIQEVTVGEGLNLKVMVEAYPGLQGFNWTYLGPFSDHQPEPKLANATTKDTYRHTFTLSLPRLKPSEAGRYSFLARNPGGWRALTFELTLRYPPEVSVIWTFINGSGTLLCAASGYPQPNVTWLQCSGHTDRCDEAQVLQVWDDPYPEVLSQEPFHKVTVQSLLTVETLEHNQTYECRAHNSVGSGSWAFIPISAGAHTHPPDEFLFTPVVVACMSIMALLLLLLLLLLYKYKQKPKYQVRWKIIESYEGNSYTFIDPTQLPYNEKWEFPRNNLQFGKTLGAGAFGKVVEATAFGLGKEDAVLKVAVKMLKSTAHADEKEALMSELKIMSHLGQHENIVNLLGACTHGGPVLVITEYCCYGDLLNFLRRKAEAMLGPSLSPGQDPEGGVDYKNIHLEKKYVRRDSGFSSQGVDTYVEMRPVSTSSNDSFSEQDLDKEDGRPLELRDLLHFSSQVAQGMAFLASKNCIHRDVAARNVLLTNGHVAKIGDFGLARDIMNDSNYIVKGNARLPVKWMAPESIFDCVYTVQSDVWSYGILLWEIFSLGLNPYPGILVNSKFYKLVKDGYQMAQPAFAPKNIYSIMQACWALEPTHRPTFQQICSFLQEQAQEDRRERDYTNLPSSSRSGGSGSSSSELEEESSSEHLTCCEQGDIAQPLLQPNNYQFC

IC50 (MCF-7; [1]) | IC50 (DU4475; [2]) | Structure (SMILES) | IC50 (CDK4) | IC50 (CDK6) | IC50 (FMS kinase) | IC50 (MCF-7; [3]) | IC50 (DU4475; [4])
20 nM | – | CC(C)N1CCOc2c(F)cc(-c3nc(Nc4ccc5c(c4)CCC(N(C)C)C5)ncc3F)cc21 (centres unmarked) [Compound 47, N6-(5-fluoro-4-(8-fluoro-4-isopropyl-3,4-dihydro-2H-benzo[b][1,4]oxazin-6-yl)pyrimidin-2-yl)-N2,N2-dimethyl-1,2,3,4-tetrahydronaphthalene-2,6-diamine] | 3.5 nM | 4 nM | 2.5 nM | – | –
670 nM | – | CC(C)N1CCOc2c(F)cc(-c3nc(Nc4ccc5c(c4)CC(N(C)C)CC5)ncc3F)cc21 (centres unmarked) [Compound 206, N7-(5-fluoro-4-(8-fluoro-4-isopropyl-3,4-dihydro-2H-benzo[b][1,4]oxazin-6-yl)pyrimidin-2-yl)-N2,N2-dimethyl-1,2,3,4-tetrahydronaphthalene-2,7-diamine] | 56 nM | 100 nM | 2.5 nM | – | –
648 nM | 3790 nM | CC1CN(C(=O)c2ccc(Nc3ncc(F)c(-c4cc(F)c5c(c4)N(C(C)C)CCO5)n3)nc2)CC(C)O1 (centres unmarked) [Compound 511, (2,6-dimethylmorpholino)(6-((5-fluoro-4-(8-fluoro-4-isopropyl-3,4-dihydro-2H-benzo[b][1,4]oxazin-6-yl)pyrimidin-2-yl)amino)pyridin-3-yl)methanone] | – | – | – | – | –
– | – | CC(C)N1CCOc2c(F)cc(-c3nc(Nc4ccc(N5CCNCC5)c(F)c4)ncc3Cl)cc21 [Compound 30, 5-chloro-N-(3-fluoro-4-(piperazin-1-yl)phenyl)-4-(8-fluoro-4-isopropyl-3,4-dihydro-2H-benzo[b][1,4]oxazin-6-yl)pyrimidin-2-amine] | 1 nM | 13 nM | 79 nM | 233 nM | –
– | – | CC(C)N1CCOc2c(F)cc(-c3nc(Nc4cn(C5CCNCC5)cn4)ncc3F)cc21 [Compound 504, 5-fluoro-4-(8-fluoro-4-isopropyl-3,4-dihydro-2H-benzo[b][1,4]oxazin-6-yl)-N-(1-(piperidin-4-yl)-1H-imidazol-4-yl)pyrimidin-2-amine] | – | – | – | 1940 nM | 4150 nM
13 nM | < 7 nM | CC(C)N1CCOc2c(F)cc(-c3nc(Nc4cccc(S(N)(=O)=O)c4)ncc3F)cc21 [Compound 520] | – | – | – | – | –
– | – | CC(C)N1CCOc2c(F)cc(-c3nc(Nc4cn(C5CCN(C)CC5)cn4)ncc3F)cc21 [Compound 496, 5-fluoro-4-(8-fluoro-4-isopropyl-3,4-dihydro-2H-benzo[b][1,4]oxazin-6-yl)-N-(1-(1-methylpiperidin-4-yl)-1H-imidazol-4-yl)pyrimidin-2-amine] | – | – | – | 1450 nM | 3420 nM
– | – | CCN1CCOc2c(F)cc(-c3nc(Nc4ccc(N5CCNCC5)c(F)c4)ncc3F)cc21 [Compound 35, 4-(4-ethyl-8-fluoro-3,4-dihydro-2H-benzo[b][1,4]oxazin-6-yl)-5-fluoro-N-(3-fluoro-4-(piperazin-1-yl)phenyl)pyrimidin-2-amine] | 2.5 nM | 3 nM | 58 nM | 20 nM | –
– | – | CN1CCOc2c(F)cc(-c3nc(Nc4ccc(N5CCNCC5)c(F)c4)ncc3F)cc21 [Compound 34, 5-fluoro-N-(3-fluoro-4-(piperazin-1-yl)phenyl)-4-(8-fluoro-4-methyl-3,4-dihydro-2H-benzo[b][1,4]oxazin-6-yl)pyrimidin-2-amine] | 3 nM | 6 nM | 42 nM | 50 nM | –
– | – | CCN1CCN(Cc2ccc(Nc3ncc(F)c(-c4cc(F)c5c(c4)N(C4CCC(N)CC4)CCO5)n3)nc2)CC1 (centres unmarked) [Compound 9, 4-(4-(4-aminocyclohexyl)-8-fluoro-3,4-dihydro-2H-benzo[b][, 4]oxazin-6-yl)-N-(5-((4-ethylpiperazin-1-yl)methyl)pyridin-2-yl)-5-fluoropyrimidin-2-amine] | > 183 nM | 173 nM | > 5000 nM | 3260 nM | –
– | – | CCCN1CCOc2c(F)cc(-c3nc(Nc4ccc(N5CCNCC5)c(F)c4)ncc3F)cc21 [Compound 36, 5-fluoro-N-(3-fluoro-4-(piperazin-1-yl)phenyl)-4-(8-fluoro-4-propyl-3,4-dihydro-2H-benzo[b][1,4]oxazin-6-yl)pyrimidin-2-amine] | 4 nM | 5 nM | 102 nM | 40 nM | –
– | – | CC(C)N1C(=O)COc2c(F)cc(-c3nc(Nc4ccc(N5CCNCC5)cn4)ncc3F)cc21 [Compound 2, 8-fluoro-6-(5-fluoro-2-(5-(piperazin-1-yl)pyridin-2-ylamino)pyrimidin-4-yl)-4-isopropyl-2H-benzo[b][1,4]oxazin-3(4H)-one] | 6 nM | 6.9 nM | > 5000 nM | – | –
– | – | CC1CN(c2ccc(Nc3ncc(F)c(-c4cc(F)c5c(c4)N(C(C)C)CCO5)n3)nc2)CCN1 (centres unmarked) [Compound 10, 5-fluoro-4-(8-fluoro-4-isopropyl-3,4-dihydro-2H-benzo[b][1,4]oxazin-6-yl)-N-(5-(3-methylpiperazin-1-yl)pyridin-2-yl)pyrimidin-2-amine] | 4.5 nM | 2.5 nM | 570 nM | 280 nM | –
595 nM | – | CC(C)N1CCOc2c(F)cc(-c3nc(Nc4ccc(C(=O)N5CCC(O)CC5)cn4)ncc3F)cc21 [Compound 460, (6-((5-fluoro-4-(8-fluoro-4-isopropyl-3,4-dihydro-2H-benzo[b][1,4]oxazin-6-yl)pyrimidin-2-yl)amino)pyridin-3-yl)(4-hydroxypiperidin-1-yl)methanone] | 13 nM | 18 nM | > 5000 nM | – | –
– | – | Fc1cnc(Nc2ccc(N3CCNCC3)cn2)nc1-c1cc(F)c2c(c1)NCCO2 [Compound 3, 5-fluoro-4-(8-fluoro-3,4-dihydro-2H-benzo[b][1,4]oxazin-6-yl)-N-(5 (piperazin-1-yl)pyridin-2-yl)pyrimidin-2-amine] | 3 nM | 5.7 nM | > 5000 nM | – | –

Structure (SMILES) | IC50 (MCF-7; [1]) | IC50 (DU4475; [2]) | IC50 (CDK4) | IC50 (CDK6) | IC50 (FMS kinase) | IC50 (MCF-7; [3]) | IC50 (DU4475; [4])
COCCN1CCN(Cc2ccc(Nc3ncc(F)c(-c4cc(F)c5c(c4)N(C(C)C)CCO5)n3)nc2)CC1 [Compound 524, 5-fluoro-4-(8-fluoro-4-isopropyl-3,4-dihydro-2H-benzo[b][1,4]oxazin-6-yl)-N-(5-((4-(2-methoxyethyl)piperazin-1-yl)methyl)pyridin-2-yl)pyrimidin-2-amine] | 332 nM | – | 3.5 nM | 7.5 nM | – | – | –
CC(C)N1CCOc2c(F)cc(-c3nc(Nc4ccc(C5CCNCC5)c(C(F)(F)F)c4)ncc3F)cc21 [Compound 438, 5-fluoro-4-(8-fluoro-4-isopropyl-3,4-dihydro-2H-benzo[b][1,4]oxazin-6-yl)-N-(4-(piperidin-4-yl)-3-(trifluoromethyl)phenyl)pyrimidin-2-amine] | 200 nM | – | 41 nM | 74 nM | 5 nM | – | –
CC1CN(C(C)C)c2cc(-c3nc(Nc4ccc(N5CCNCC5)c(F)c4)ncc3F)cc(F)c2O1 (centres unmarked) [Compound 32, 5-fluoro-N-(3-fluoro-4-(piperazin-1-yl)phenyl)-4-(8-fluoro-4-isopropyl-2-methyl-3,4-dihydro-2H-benzo[b][1,4]oxazin-6-yl)pyrimidin-2-amine] | 130 nM | – | 12 nM | 21 nM | 177 nM | – | –
CC(C)N1CCOc2c(Cl)cc(-c3nc(Nc4ccc(N5CCNCC5)c(F)c4)ncc3Cl)cc21 [Compound 52, 5-chloro-4-(8-chloro-4-isopropyl-3,4-dihydro-2H-benzo[b][1,4]oxazin-6-yl)-N-(3-fluoro-4-(piperazin-1-yl)phenyl)pyrimidin-2-amine] | 695 nM | – | 89 nM | 200 nM | 14 nM | – | –
